Test results as given in the NIST ThermoML archive (doi:10.1021/je060271a).

Settings: 283.15 K, Liquid, Vibrating tube method

CCCCCC(=O)OCC(COC(=O)CCCCC)(COC(=O)CCCCC)COC(=O)CCCCC [pentaerythritol tetrahexanoate]
Settings	mass density [kg/m3]
25591 kPa	1018.3
25610 kPa	1018.3
25634 kPa	1018.4
25653 kPa	1018.5
25672 kPa	1018.4
25696 kPa	1018.4
25716 kPa	1018.4
25738 kPa	1018.5
25757 kPa	1018.5
25774 kPa	1018.5
25793 kPa	1018.4
25815 kPa	1018.4
25832 kPa	1018.4
25851 kPa	1018.4
25872 kPa	1018.5
25890 kPa	1018.4
25912 kPa	1018.6
25930 kPa	1018.7
25948 kPa	1018.5
25966 kPa	1018.5
25986 kPa	1018.5
26002 kPa	1018.5
26022 kPa	1018.6
26039 kPa	1018.6
26056 kPa	1018.6
26075 kPa	1018.7
26091 kPa	1018.6
26108 kPa	1018.7
26127 kPa	1018.6
26143 kPa	1018.8
26160 kPa	1018.6
26180 kPa	1018.7
26196 kPa	1018.6
26213 kPa	1018.6
26233 kPa	1018.7
26249 kPa	1018.7
26266 kPa	1018.8
26287 kPa	1018.8
26303 kPa	1018.7
26320 kPa	1018.8
26337 kPa	1018.8
26357 kPa	1018.7
26374 kPa	1018.7
26394 kPa	1018.6
26410 kPa	1018.8
26428 kPa	1018.7
26448 kPa	1018.9
26465 kPa	1018.8
26483 kPa	1018.7
26500 kPa	1018.8
26521 kPa	1018.9
26538 kPa	1018.8
26559 kPa	1018.9
26576 kPa	1018.9
26593 kPa	1018.8
26609 kPa	1018.8
26629 kPa	1018.9
26645 kPa	1018.9
26661 kPa	1019
26680 kPa	1018.9
26696 kPa	1018.9
26713 kPa	1018.9
26730 kPa	1018.9
26746 kPa	1018.9
26766 kPa	1019
26782 kPa	1019
26798 kPa	1019
26818 kPa	1019
26834 kPa	1019
26850 kPa	1018.9
26870 kPa	1019
26886 kPa	1019
26902 kPa	1019
26957 kPa	1019.1
26974 kPa	1019
26993 kPa	1019.2
27010 kPa	1019.1
27026 kPa	1019
27042 kPa	1019.2
27063 kPa	1019.1
27080 kPa	1019.2
27097 kPa	1019.1
27117 kPa	1019
27134 kPa	1019.1
27155 kPa	1019.2
27172 kPa	1019.2
27188 kPa	1019.2
27204 kPa	1019.3
27222 kPa	1019.2
27238 kPa	1019.2
27253 kPa	1019.2
27272 kPa	1019.2
27288 kPa	1019.3
27306 kPa	1019.2
27322 kPa	1019.4
27338 kPa	1019.3
27354 kPa	1019.3
27373 kPa	1019.2
27388 kPa	1019.2
27404 kPa	1019.3
27423 kPa	1019.3
27439 kPa	1019.3
27458 kPa	1019.4
27474 kPa	1019.3
27489 kPa	1019.4
27505 kPa	1019.3
27524 kPa	1019.4
27540 kPa	1019.3
27560 kPa	1019.3
27576 kPa	1019.3
27592 kPa	1019.4
27611 kPa	1019.4
27627 kPa	1019.3
27644 kPa	1019.4
27660 kPa	1019.5
27679 kPa	1019.5
27696 kPa	1019.4
27712 kPa	1019.5
27732 kPa	1019.4
27748 kPa	1019.5
27764 kPa	1019.6
27784 kPa	1019.5
27800 kPa	1019.4
27817 kPa	1019.5
27837 kPa	1019.5
27853 kPa	1019.4
27869 kPa	1019.5
27889 kPa	1019.6
27906 kPa	1019.6
27922 kPa	1019.7
27942 kPa	1019.6
27959 kPa	1019.6
27976 kPa	1019.5
27996 kPa	1019.7
28012 kPa	1019.5
28029 kPa	1019.6
28046 kPa	1019.7
28066 kPa	1019.7
28083 kPa	1019.7
28100 kPa	1019.7
28120 kPa	1019.6
28136 kPa	1019.6
28153 kPa	1019.7
28170 kPa	1019.8
28190 kPa	1019.8
28207 kPa	1019.9
28225 kPa	1019.7
28245 kPa	1019.7
28262 kPa	1019.7
28280 kPa	1019.8
28297 kPa	1019.7
28314 kPa	1019.7
28334 kPa	1019.8
28351 kPa	1019.7
28371 kPa	1019.8
28388 kPa	1019.7
28405 kPa	1019.9
28422 kPa	1019.7
28443 kPa	1019.8
28460 kPa	1019.8
28478 kPa	1019.8
28500 kPa	1019.8
28517 kPa	1019.8
28535 kPa	1019.9
28552 kPa	1019.9
28570 kPa	1019.9
28591 kPa	1019.9
28608 kPa	1020
28629 kPa	1019.9
28646 kPa	1019.9
28664 kPa	1019.9
28686 kPa	1019.9
28703 kPa	1020
28722 kPa	1019.9
28744 kPa	1019.9
28763 kPa	1019.9
28781 kPa	1019.9
28800 kPa	1020
28815 kPa	1020.1
28830 kPa	1020.1
28848 kPa	1020
28863 kPa	1020
28878 kPa	1020.2
28896 kPa	1020
28911 kPa	1020
28926 kPa	1020
28944 kPa	1020.1
28958 kPa	1020.1
28973 kPa	1020
28990 kPa	1020.2
29004 kPa	1020.2
29018 kPa	1020.1
29035 kPa	1020
29050 kPa	1020.2
29064 kPa	1020.1
29081 kPa	1020.1
29096 kPa	1020.3
29110 kPa	1020.2
29127 kPa	1020.2
29142 kPa	1020.1
29156 kPa	1020.1
29171 kPa	1020.1
29188 kPa	1020.2
29202 kPa	1020.1
29219 kPa	1020.3
29234 kPa	1020.3
29248 kPa	1020.3
29263 kPa	1020.3
29280 kPa	1020.2
29295 kPa	1020.3
29313 kPa	1020.3
29327 kPa	1020.3
29342 kPa	1020.3
29357 kPa	1020.3
29375 kPa	1020.3
29389 kPa	1020.4
29407 kPa	1020.3
29422 kPa	1020.4
29436 kPa	1020.2
29451 kPa	1020.4
29469 kPa	1020.3
29484 kPa	1020.4
29499 kPa	1020.3
29516 kPa	1020.3
29531 kPa	1020.5
29547 kPa	1020.3
29564 kPa	1020.4
29579 kPa	1020.4
29594 kPa	1020.4
29609 kPa	1020.4
29627 kPa	1020.4
29642 kPa	1020.5
29660 kPa	1020.5
29675 kPa	1020.5
29690 kPa	1020.6
29708 kPa	1020.6
29723 kPa	1020.4
29738 kPa	1020.6
29754 kPa	1020.5
29770 kPa	1020.5
29788 kPa	1020.5
29803 kPa	1020.5
29821 kPa	1020.5
29837 kPa	1020.6
29852 kPa	1020.6
29867 kPa	1020.6
29886 kPa	1020.6
29901 kPa	1020.5
29916 kPa	1020.5
29935 kPa	1020.6
29950 kPa	1020.6
29967 kPa	1020.7
29982 kPa	1020.5
29998 kPa	1020.6
30016 kPa	1020.5
30032 kPa	1020.6
30048 kPa	1020.6
30066 kPa	1020.6
30082 kPa	1020.6
30097 kPa	1020.6
30116 kPa	1020.6
30131 kPa	1020.7
30147 kPa	1020.7
30163 kPa	1020.7
30182 kPa	1020.7
30198 kPa	1020.8
30214 kPa	1020.7
30232 kPa	1020.7
30248 kPa	1020.8
30264 kPa	1020.7
30280 kPa	1020.7
30298 kPa	1020.7
30314 kPa	1020.9
30330 kPa	1020.9
30349 kPa	1020.8
30364 kPa	1020.8
30384 kPa	1020.9
30400 kPa	1020.8
30416 kPa	1020.9
30431 kPa	1020.8
30451 kPa	1020.8
30466 kPa	1020.9
30482 kPa	1020.9
30502 kPa	1020.9
30517 kPa	1020.9
30536 kPa	1020.9
30552 kPa	1020.9
30568 kPa	1020.9
30587 kPa	1021
